# Patent US20160113921A1, “COMBINATION THERAPY COMPRISING OXAZOLIDINONE-QUINOLONES FOR USE IN TREATING BACTERIAL INFECTIONS” (MORPHOCHEM AKTIENGESELLSCHAFT FÜR KOMBINATORISCHE CHEMIE, priority 2013, published 2016)
# Where two headings read alike, the source gives them in different places.
# Key:
# Assay type in all cases: cell-based
# [1] = tested on: Gram-positive strains tested; assay: MIC testing, statements on the Gram-positive strain panel; conditions: all Gram-positive strains tested; read-out: MIC (inhibitory concentration)
# Excerpt: (§1) MIC-testing was done immediately after preparation of the dilutions. All tests were done in duplicate and repeated once on a separate occasion.
# [2] = tested on: E. cloacae ATCC 13047; assay: MIC, broth microdilution (CLSI), CAMHB; conditions: monosubstance, Ecl ATCC13047
# Protocol: as §1
# (§2) 1 mL of the bacterial suspension was transferred into a tube containing 10 mL CAMHB and was vortexed thoroughly. (S. pneumoniae 1 mL in 10 mL CAMHB+5% lysed horse blood). Columns 1-15 of the 96-well plate were inoculated with 5 μL of this suspension (1-15=antibacterial solution, 16=sterile medium without test item).
# (§3) Turbidity was read visually with a mirror.
# [3] = tested on: K. pneumoniae ATCC 13883; assay: MIC, broth microdilution (CLSI), CAMHB; conditions: monosubstance, Kp ATCC13883
# Protocol: as §1, §2, §3
# [4] = tested on: S. aureus NRS-119 (MRSA, linezolid- and quinolone-resistant); assay: MIC, broth microdilution (CLSI), CAMHB; conditions: Staphylococcus aureus; monosubstance; Sa NRS119; read-out: MIC
# Protocol: as §1, §2, §3
# [5] = tested on: E. faecium UW 3695 (linezolid and quinolone-resistant); assay: MIC, broth microdilution (CLSI), CAMHB; conditions: Enterococcus faecium; monosubstance; Efc UW3695; read-out: MIC
# Protocol: as §1, §2, §3
# [6] = tested on: E. faecium DSMZ 2146; assay: MIC, broth microdilution (CLSI), CAMHB; conditions: Enterococcus faecium; monosubstance; Efc DSMZ2146; read-out: MIC
# Protocol: as §1, §2, §3
# [7] = tested on: E. coli NRZ-00401 (metallo β-lactamase VIM-1); assay: MIC, broth microdilution (CLSI), CAMHB; conditions: monosubstance, Ec NRZ00401
# Protocol: as §1, §2, §3
# [8] = tested on: S. aureus Visa Mu 50 (MRSA, vancomycin intermediate susceptible); assay: MIC, broth microdilution (CLSI), CAMHB; conditions: Staphylococcus aureus; monosubstance; Sa VisaMu50; read-out: MIC
# Protocol: as §1, §2, §3
# [9] = tested on: E. cloacae ATCC 13047; assay: Checkerboard titration of Compound 1 and colistin
# Excerpt: (§4) The checkerboard consists of columns in which each well contains the same amount of antibacterial A being over i dilutions along the x-axis, and in rows in which each well contains the same amount of antibacterial B over j dilutions on the y-axis, i.e. serial dilutions of antibacterials A and B, respectively, are titrated in a rectangular fashion.
# (§5) The fractional inhibitory concentration (FIC) is a mathematical expression of the effect of the combination of two antibacterial agents A and B. The FICs were calculated as the MIC of antibacterial A and antibacterial B in combination divided by the MIC of antibacterial A or antibacterial B alone.
# (§6) The FICs and FIC index, respectively, are calculated according to the following equations:
# (§7) FIC(A)=MIC(A in the presence of B)/MIC(A alone)
# (§8) FIC(B)=MIC(B in the presence of A)/MIC(B alone)
# (§9) The checkerboard titrations were performed three times.
# [10] = tested on: E. coli ATCC 25922; assay: Checkerboard titration of Compound 1 and colistin
# Excerpt: as §4, §5, §6, §7, §8, §9
# [11] = tested on: six selected indicator strains; assay: Checkerboard titration, statements on the six indicator strains; conditions: read-out: MIC of Compound 1 alone, checkerboard; strains as worded in the text
# Excerpt: as §4, §5, §9
# [12] = tested on: E. coli ATCC 25922; assay: Time-kill curves; conditions: E. coli ATCC25922; for growth- and kill rates k ('+' = growth, unmarked = kill rate): first four hours
# [13] = tested on: E. coli ATCC 25922, NRZ-00401, NRZ-00302 and GNS-2601; assay: Time-kill curves, statements on the four E. coli strains; conditions: one- or two-times MIC; four E. coli strains
# [14] = tested on: E. coli NRZ-00302 (NDM-1 β-lactamase); conditions: checkerboard
# Excerpt: as §4, §5, §6, §7, §8, §9
# [15] = tested on: K. pneumoniae NRZ-00535 (VIM-1 β-lactamase); conditions: checkerboard
# Excerpt: as §4, §5, §6, §7, §8, §9
# [16] = tested on: E. coli ATCC 25922; assay: MIC, broth microdilution (CLSI), CAMHB; conditions: monosubstance; Ec ATCC25922
# Protocol: as §1, §2, §3
# [17] = tested on: K. pneumoniae NRZ-00535 (VIM-1); assay: MIC, broth microdilution (CLSI), CAMHB; conditions: monosubstance; Kp NRZ00535
# Protocol: as §1, §2, §3
# [18] = tested on: P. aeruginosa ATCC 10145; assay: MIC, broth microdilution (CLSI), CAMHB; conditions: monosubstance; Pa ATCC10145
# Protocol: as §1, §2, §3
# [19] = tested on: E. cloacae NRZ-00239 (VIM-1); assay: MIC, broth microdilution (CLSI), CAMHB; conditions: monosubstance; Ecl NRZ00239
# Protocol: as §1, §2, §3
# [20] = tested on: P. mirabilis ATCC 9240; assay: MIC, broth microdilution (CLSI), CAMHB; conditions: monosubstance; Pm ATCC9240
# Protocol: as §1, §2, §3
# [21] = tested on: P. mirabilis NRZ-00185 (AmpC, type CMY-2); assay: MIC, broth microdilution (CLSI), CAMHB; conditions: monosubstance; Pm NRZ00185
# Protocol: as §1, §2, §3
# [22] = tested on: E. coli NRZ-00302 (metallo β-lactamase NDM-1); assay: MIC, broth microdilution (CLSI), CAMHB; conditions: monosubstance; Ec NRZ00302
# Protocol: as §1, §2, §3
# [23] = tested on: K. pneumoniae NRZ-00103 (KPC-2); assay: MIC, broth microdilution (CLSI), CAMHB; conditions: monosubstance; Kp NRZ00103
# Protocol: as §1, §2, §3
# [24] = tested on: P. aeruginosa NRZ-00425 (VIM-1); assay: MIC, broth microdilution (CLSI), CAMHB; conditions: monosubstance; Pa NRZ00425
# Protocol: as §1, §2, §3
# [25] = tested on: E. coli GNS-2601 (ESBL CTX-M-15); assay: MIC, broth microdilution (CLSI), CAMHB; conditions: monosubstance; Ec GNS2601
# Protocol: as §1, §2, §3
# [26] = tested on: K. pneumoniae NRZ-00002 (OXA-48); assay: MIC, broth microdilution (CLSI), CAMHB; conditions: monosubstance; Kp NRZ00002
# Protocol: as §1, §2, §3
# [27] = tested on: E. cloacae NRZ-00239 (VIM-1 β-lactamase); assay: Checkerboard titration of Compound 1 and colistin
# Excerpt: as §4, §5, §6, §7, §8, §9
# [28] = tested on: E. coli NRZ-00302; assay: Time-kill curves; conditions: E. coli NRZ00302; for growth- and kill rates k ('+' = growth, unmarked = kill rate): first four hours
# [29] = tested on: E. coli GNS-2601; assay: Time-kill curves; conditions: E. coli GNS2601; for growth- and kill rates k ('+' = growth, unmarked = kill rate): first four hours
# [30] = tested on: P. aeruginosa NRZ-00425 (VIM-2 β-lactamase); assay: microbe, parasite or virus in culture; conditions: checkerboard
# Excerpt: as §4, §5, §6, §7, §8, §9
# [31] = tested on: E. coli NRZ-00401; assay: Time-kill curves; conditions: E. coli NRZ00401; for growth- and kill rates k ('+' = growth, unmarked = kill rate): first four hours
molecule,measurement,setting,value
"CC(=O)NC[C@H]1CN(c2ccc(OCC3(O)CCN(c4cc5c(cc4F)c(=O)c(C(=O)O)cn5C4CC4)CC3)c(F)c2)C(=O)O1 [Compound 1, 7-(4-{4-[(5S)-5-(acetylamino-methyl)-2-oxo-oxazolidin-3-yl]-2-fluoro-phenoxymethyl}-4-hydroxy-piperidin-1-yl)-1-cyclopropyl-6-fluoro-4-oxo-1,4-dihydro-quinoline-3-carboxylic]",MIC,[1],< 0.25 µg/mL
same,MIC,"[2]; Enterobacter cloacae, read-out: MIC",128 µg/mL
same,MIC,"[3]; Klebsiella pneumoniae, read-out: MIC",128 µg/mL
same,MIC,[4],1 µg/mL
same,MIC,[5],0.06 µg/mL
same,MIC,[6],0.06 µg/mL
same,MIC,"[7]; Escherichia coli, read-out: MIC",16 µg/mL
same,MIC,[8],0.06 µg/mL
same,MIC,"[9]; Enterobacter cloacae, ATCC13047, checkerboard, read-out: MIC (agent alone)",> 256 µg/mL
same,MIC,"[10]; Escherichia coli, ATCC25922, read-out: MIC (agent alone)",8 to 16 µg/mL
same,MIC,[11],> 256 µg/mL
colistin,"growth- and kill rates k ('+' = growth, unmarked = kill rate)",[12]; single agent at 1x its MIC,0.86 h⁻¹
same,"growth- and kill rates k ('+' = growth, unmarked = kill rate)",[12]; single agent at 2x its MIC,1.04 h⁻¹
same,Viable counts at 8 h of exposure,[12]; single agent at 1x its MIC,0 log10 CFU/mL
same,Viable counts at 8 h of exposure,[12]; single agent at 2x its MIC,0 log10 CFU/mL
same,type of activity in time-kill,[13],bactericidal
same,MIC (agent alone),[14],0.5 to 1 µg/mL
same,MIC (agent alone),[15],0.5 to 2 µg/mL
same,MIC,[2],64 µg/mL
same,MIC,[3],0.03 µg/mL
same,MIC,[16],1 µg/mL
same,MIC,[17],0.25 µg/mL
same,MIC,[18],0.5 µg/mL
same,MIC,[19],0.5 µg/mL
same,MIC,[20],>256 µg/mL
same,MIC,[21],>256 µg/mL
same,MIC,[22],1 µg/mL
same,MIC,[7],1 µg/mL
same,MIC,[23],0.25 µg/mL
same,MIC,[24],1 µg/mL
same,MIC,[25],2 µg/mL
same,MIC,[26],0.25 µg/mL
same,MIC (agent alone),[9]; checkerboard,256 µg/mL
same,MIC (agent alone),[10],1 to 2 µg/mL
same,MIC (agent alone),[27],1 µg/mL
same,MIC (agent alone),[27]; listed as col,0.5 to 1 µg/mL
same,"growth- and kill rates k ('+' = growth, unmarked = kill rate)",[28]; single agent at 1x its MIC,1.63 h⁻¹
same,"growth- and kill rates k ('+' = growth, unmarked = kill rate)",[28]; single agent at 2x its MIC,1.89 h⁻¹
same,Viable counts at 8 h of exposure,[28]; single agent at 1x its MIC,1.95 log10 CFU/mL
same,Viable counts at 8 h of exposure,[28]; single agent at 2x its MIC,0 log10 CFU/mL
same,"growth- and kill rates k ('+' = growth, unmarked = kill rate)",[29]; single agent at 1x its MIC,1.55 h⁻¹
same,"growth- and kill rates k ('+' = growth, unmarked = kill rate)",[29]; single agent at 2x its MIC,1.80 h⁻¹
same,Viable counts at 8 h of exposure,[29]; single agent at 1x its MIC,0 log10 CFU/mL
same,Viable counts at 8 h of exposure,[29]; single agent at 2x its MIC,0 log10 CFU/mL
same,MIC (agent alone),[30],2 µg/mL
same,"growth- and kill rates k ('+' = growth, unmarked = kill rate)",[31]; single agent at 1x its MIC,2.46 h⁻¹
same,"growth- and kill rates k ('+' = growth, unmarked = kill rate)",[31]; single agent at 2x its MIC,2.53 h⁻¹
same,Viable counts at 8 h of exposure,[31]; single agent at 1x its MIC,0 log10 CFU/mL
same,Viable counts at 8 h of exposure,[31]; single agent at 2x its MIC,0 log10 CFU/mL
